What all share (assay type): cell-based
In one experiment the test system is human cancer cell line. Briefly: Human cancer cell line activity compared to dolastatin 10.
For another experiment, the system named is KM20L2. Briefly: NCI human cancer cell line test, Colon KM20L2. From the text:
(§1) Only two hundred years ago, many diseases ravaged humankind. Many of these diseases have been controlled or eradicated. In the development of the means to treat or control these diseases, work with the appropriate common experimental animals was of critical importance. With the various types of cancers, and with the HIV virus, such work is presently ongoing. The research for the treatment of various types of cancer is coordinated by the National Cancer Institute (NCI).NCI, as a government entity, has been charged with assisting anti-cancer research. To establish whether a substance has anti cancer activity, NCI has established a protocol. This protocol, which involves testing a substance against a cell line panel containing 60 human tumor cell lines, has been verified, and is accepted in scientific circles. This protocol, and the established statistical means of evaluating the results obtained therefrom have been amply described in the literature. See e.g. Principles & Practice of Oncology PPO Updates, Volume 3, Number 10, October 1989, by Michael R. Boyd, M.D., Ph.D., for a description of the protocol. The statistical analysis is explained in "Display and Analysis of Patterns of Differential Activity of Drugs Against Human Tumor Cell Lines: Development of Mean Graph and COMPARE Algorithm" Journal of the National Cancer Institute Reports Vol. 81, No. 14, Pg. 1088, Jul. 14, 1989, by K. D. Paull et al. Both articles are incorporated herein by this reference as if fully set forth.
(§2) The structural modifications of dolastatin 10 whose design and synthesis are described herein were evaluated for antineoplastic activity. This evaluation was conducted using the standard protocols established by National Cancer Institute (NCI) as described above. These protocols do evaluate whether the substances in question have antineoplastic activity against certain human cancer cell lines derived from human cancer patients. Substantial activity was found in those compounds tested. The antineoplastic activity of the compounds is reported below in Table 1. The results of the 60 cell line NCI in vitro testing of compound 6b conducted Jun. 22, 1992, is reported below in Table 2.

In a further experiment the test system is A498. Briefly: NCI human cancer cell line test, Renal A498.
Source text: as §1, §2

The test system of the next experiment is SK-MEL-3. Description: NCI human cancer cell line test, Melanoma SK-MEL-3.
Source text: as §1, §2

The subject of a further experiment is SF-295. Briefly: NCI human cancer cell line test, CNS SF-295.
Source text: as §1, §2

The test system of a further experiment is NCI-460. Description: NCI human cancer cell line test, Lung-NSC NCI-460.
Source text: as §1, §2

The subject of another experiment is OVCAR-3. Briefly: NCI human cancer cell line test, Ovarian OVCAR-3.
Source text: as §1, §2

Another experiment relates to P-388. Description: Mouse leukemia cell P-388 growth inhibition. The procedure: as §2

Broadly, the TGI is the concentration giving total growth inhibition. Lower therefore signals greater sensitivity of the cells.

Some results are limits rather than exact numbers.

R-Doe-isodolastatin 10: the “human cancer cell line activity as compared to dolastatin 10” value in the experiment on human cancer cell line was “did not show any significant difference”.
As to “[2S-[1[1R*(R*),2S*],2R*[1S*,2S*]]]-N,N-dimethyl-L-valyl-N-[2-methoxy-4-[2- [1-methoxy-2-methyl-3-oxo-3-[[3-phenyl-propyl]amino]propyl]-1-pyrrolidinyl- 1-(methylpropyl)-4-oxobutyl]-N-methyl-L-valineamide [Compound 6c]”, the GI-50 in the experiment on KM20L2 is 0.00033 µg/mL; in the experiment with A498 it was 0.00039 µg/mL; with SK-MEL-3, 0.00031 µg/mL; in the experiment on SF-295, 0.00028 µg/mL; in the experiment with NCI-460, 0.00031 µg/mL; in the experiment with OVCAR-3, 0.00018 µg/mL. Also, the LC-50 in the experiment on KM20L2, with A498, in the experiment on SK-MEL-3, with SF-295, in the experiment with NCI-460 and with OVCAR-3 was below 0.01 µg/mL throughout. Moreover, the TGI with KM20L2 is below 10 ng/mL; with A498, below 10 ng/mL; in the experiment on SK-MEL-3 it was below 10 ng/mL; in the experiment with SF-295, 0.79 ng/mL; in the experiment with NCI-460, below 10 ng/mL; in the experiment with OVCAR-3 it was 0.54 ng/mL. The same substance gave an ED-50 with P-388 of 0.00044 mg/mL.
Consider “[2S-[1[1R*(R*),2S*],2R*[1S*,2S*]]]-N,N-dimethyl-L-valyl-N-[2-methoxy-4-[2- [1-methoxy-2-methyl-3-oxo-3-benzylamino-propyl]-1-pyrrolidinyl-1-(methylpropyl)-4-oxobutyl]-N-methyl-L-valineamide [Compound 6a]”, for which the GI-50 in the experiment with KM20L2, in the experiment with A498, with SK-MEL-3, with SF-295, in the experiment with NCI-460 and in the experiment on OVCAR-3 was below 0.0001 µg/mL throughout. For the same substance, the LC-50 in the experiment with KM20L2, in the experiment with A498, in the experiment on SK-MEL-3, in the experiment on SF-295, with NCI-460 and in the experiment on OVCAR-3 was below 0.0001 µg/mL each time. The total growth inhibition concentration (TGI) with KM20L2, with A498, in the experiment with SK-MEL-3, with SF-295, in the experiment on NCI-460 and in the experiment with OVCAR-3 was below 0.1 ng/mL in each case. The substance further had an ED-50 with P-388 of 0.00378 mg/mL.
Take “[2S-[1[1R*(R*),2S*],2R*[1S*,2S*]]]-N,N-dimethyl-L-valyl-N-[2-methoxy-4-[2- [1-methoxy-2-methyl-3-oxo-3-[[2-phenyl-ethyl]amino]propyl]-1-pyrrolidinyl-1-(methylpropyl)-4-oxobutyl]-N-methyl-L-valineamide [Compound 6b]”: the GI-50 with KM20L2 stood at 0.000005 µg/mL; with A498, 0.000013 µg/mL; with SK-MEL-3, 0.000012 µg/mL; with SF-295, 0.000014 µg/mL; in the experiment on NCI-460 it was 0.000005 µg/mL; in the experiment with OVCAR-3, 0.000004 µg/mL. The LC-50 in the experiment with KM20L2, in the experiment on A498, in the experiment with SK-MEL-3, in the experiment on SF-295, in the experiment on NCI-460 and in the experiment on OVCAR-3 was below 0.0001 µg/mL in each case. The concentration for total growth inhibition (TGI) with KM20L2 was below 0.1 ng/mL; in the experiment with A498, below 0.1 ng/mL; in the experiment with SK-MEL-3, below 0.1 ng/mL; in the experiment with SF-295 it was 0.042 ng/mL; in the experiment with NCI-460, below 0.1 ng/mL; in the experiment on OVCAR-3, 0.027 ng/mL. Further, in the experiment with P-388, the ED-50 worked out at 0.0005 mg/mL.
